In patent US20250353891A1 (MEDIMMUNE LIMITED, priority 2022, published 2025):
Starred links: 1 amine or outer side, 2 acyl side, 3 side chain; linkers in the order of their positions; H or OH if unused. Non-standard residues stand in square brackets, D forms with d. Residues, ends and D or L forms follow the SMILES beside them. Groups on a side chain read outwards from the residue. *: point of attachment. γGlu = O=C(O)[C@H](CCC(=O)[*:2])N[*:1]; Stearoyl = CCCCCCCCCCCCCCCCCC(=O)*; Palmitoyl = CCCCCCCCCCCCCCCC(=O)*; αMeF = C[C@](N)(Cc1ccccc1)C(=O)O; PEG2 = NCCOCCOCCC(=O)O; Aib = CC(C)(N)C(=O)O

How the values were obtained:
[1] = molecular target: human GLP-1 receptor (hGLP-1R) (Homo sapiens, UniProt P43220); experiment: cAMP production (HTRF) in CHO cells expressing hGLP-1R; assay type: cell-based; set-up: expressed in transfected cells; details: for % Relative Potency Ratio: Table 6, % GLP-1R activity relative to GLP-1 / % GlucR activity relative to glucagon; for EC50: Table 6, peptides modified at position 17, cAMP in CHO hGLP-1R cells, geometric mean, read-out: hGLP-1R EC50
human GLP-1 receptor (hGLP-1R), sequence (P43220 24-463): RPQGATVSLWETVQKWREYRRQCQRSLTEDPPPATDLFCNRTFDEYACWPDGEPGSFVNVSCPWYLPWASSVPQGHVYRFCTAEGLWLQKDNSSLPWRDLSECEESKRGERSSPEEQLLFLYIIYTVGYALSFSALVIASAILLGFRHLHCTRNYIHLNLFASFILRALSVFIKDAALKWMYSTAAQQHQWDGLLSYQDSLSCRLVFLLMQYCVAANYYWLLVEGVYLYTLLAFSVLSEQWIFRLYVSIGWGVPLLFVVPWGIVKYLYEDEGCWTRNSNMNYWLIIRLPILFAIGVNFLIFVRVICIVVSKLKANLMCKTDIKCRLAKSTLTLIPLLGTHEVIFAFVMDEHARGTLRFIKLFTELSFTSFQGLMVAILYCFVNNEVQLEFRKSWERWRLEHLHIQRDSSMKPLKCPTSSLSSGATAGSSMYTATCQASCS
In short: (§1)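 Potency values represent EC50 from 4-parameter logistic curves of HTRF % Delta F signal. Receptor-expressing CHO cells (hGCGR 2×10^5 cells/mL, hGLP-1R 1×10^5 cells/mL) were exposed for 30 min at room temperature before two-step cAMP detection.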

[2] = molecular target: human glucagon receptor (hGCGR) (Homo sapiens, UniProt P47871); experiment: cAMP production (HTRF) in CHO cells expressing hGCGR; assay type: cell-based; set-up: expressed in transfected cells; details: Table 6, peptides modified at position 17; cAMP in CHO hGCGR cells; geometric mean; read-out: hGluc-R EC50
human glucagon receptor (hGCGR), sequence (P47871 26-477): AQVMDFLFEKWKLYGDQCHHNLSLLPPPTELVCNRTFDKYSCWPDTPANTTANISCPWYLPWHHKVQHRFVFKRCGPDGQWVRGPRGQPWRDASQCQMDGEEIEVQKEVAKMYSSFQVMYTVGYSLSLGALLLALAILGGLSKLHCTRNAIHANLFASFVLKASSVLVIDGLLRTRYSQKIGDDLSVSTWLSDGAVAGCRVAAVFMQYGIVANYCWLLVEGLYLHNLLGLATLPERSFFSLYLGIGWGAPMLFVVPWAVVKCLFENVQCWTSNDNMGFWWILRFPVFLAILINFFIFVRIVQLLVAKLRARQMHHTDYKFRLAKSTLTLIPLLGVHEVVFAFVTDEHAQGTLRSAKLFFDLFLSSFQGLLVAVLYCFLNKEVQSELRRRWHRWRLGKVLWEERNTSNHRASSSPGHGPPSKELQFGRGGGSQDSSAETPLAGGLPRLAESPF
In short: as §1

| Structure (SMILES) | % Relative Potency Ratio [1] | EC50 [2] | EC50 [1] |
| --- | --- | --- | --- |
| CCCCCCCCCCCCCCCCCC(=O)N[C@@H](CCC(=O)N[C@@H](CCC(=O)NCCOCCOCCC(=O)NCCOCCOCCC(=O)NCCCC[C@H](NC(=O)[C@H](CO)NC(=O)[C@H](CC(=O)O)NC(=O)[C@H](CC(C)C)NC(=O)C(C)(C)NC(=O)[C@H](CCCCN)NC(=O)[C@H](CO)NC(=O)[C@@H](NC(=O)[C@H](CC(=O)O)NC(=O)[C@H](CO)NC(=O)[C@@H](NC(=O)[C@](C)(Cc1ccccc1)NC(=O)[C@H](CO)NC(=O)CNC(=O)[C@H](CCC(N)=O)NC(=O)[C@H](CO)NC(=O)[C@@H](N)Cc1c[nH]cn1)[C@@H](C)O)C(C)C)C(=O)N[C@@H](C)C(=O)N[C@@H](C)C(=O)N[C@@H](CCC(N)=O)C(=O)N[C@@H](CC(=O)O)C(=O)N[C@@](C)(Cc1ccccc1)C(=O)N[C@H](C(=O)N[C@@H](CCC(N)=O)C(=O)NC(C)(C)C(=O)N[C@@H](CC(C)C)C(=O)N[C@@H](C)C(=O)N[C@@H](CC(N)=O)C(N)=O)C(C)C)C(=O)O)C(=O)O [Peptide 93] (H-HSQGS[αMeF]TSDVSK[Aib]LDSK([PEG2-PEG2-γGlu-γGlu-Stearoyl])AAQD[αMeF]VQ[Aib]LAN-NH2; N-terminus assumed) | 37.4 | 0.00892 nM |  |
| CCCCCCCCCCCCCCCCCC(=O)N[C@@H](CCC(=O)N[C@@H](CCC(=O)NCCOCCOCCC(=O)NCCOCCOCCC(=O)NCCCC[C@H](NC(=O)[C@H](CO)NC(=O)[C@H](CC(=O)O)NC(=O)[C@H](CC(C)C)NC(=O)C(C)(C)NC(=O)[C@H](CCCCN)NC(=O)[C@H](CO)NC(=O)[C@@H](NC(=O)[C@H](CC(=O)O)NC(=O)[C@H](CO)NC(=O)[C@@H](NC(=O)[C@](C)(Cc1ccccc1)NC(=O)[C@H](CO)NC(=O)CNC(=O)[C@H](CCC(N)=O)NC(=O)[C@H](CO)NC(=O)[C@@H](N)Cc1c[nH]cn1)[C@@H](C)O)C(C)C)C(=O)N[C@@H](C)C(=O)N[C@@H](C)C(=O)N[C@@H](CCC(N)=O)C(=O)N[C@@H](CC(=O)O)C(=O)N[C@@](C)(Cc1ccccc1)C(=O)N[C@H](C(=O)N[C@@H](CCC(N)=O)C(=O)NC(C)(C)C(=O)N[C@@H](CC(C)C)C(=O)N[C@@H](CO)C(=O)N[C@@H](CCC(=O)O)C(N)=O)C(C)C)C(=O)O)C(=O)O [Peptide 94] (H-HSQGS[αMeF]TSDVSK[Aib]LDSK([PEG2-PEG2-γGlu-γGlu-Stearoyl])AAQD[αMeF]VQ[Aib]LSE-NH2; N-terminus assumed) | 20.7 | 0.0054 nM |  |
| CCCCCCCCCCCCCCCCCC(=O)N[C@@H](CCC(=O)N[C@@H](CCC(=O)NCCOCCOCCC(=O)NCCOCCOCCC(=O)NCCCC[C@H](NC(=O)[C@H](CO)NC(=O)[C@H](CC(=O)O)NC(=O)[C@H](CC(C)C)NC(=O)C(C)(C)NC(=O)[C@H](CCCCN)NC(=O)[C@H](CO)NC(=O)[C@@H](NC(=O)[C@H](CC(=O)O)NC(=O)[C@H](CO)NC(=O)[C@@H](NC(=O)[C@](C)(Cc1ccccc1)NC(=O)[C@H](CO)NC(=O)CNC(=O)[C@H](CCC(N)=O)NC(=O)[C@H](CO)NC(=O)[C@@H](N)Cc1c[nH]cn1)[C@@H](C)O)C(C)C)C(=O)N[C@@H](C)C(=O)N[C@@H](C)C(=O)N[C@@H](CCC(N)=O)C(=O)N[C@@H](CC(=O)O)C(=O)N[C@@](C)(Cc1ccccc1)C(=O)N[C@H](C(=O)N[C@@H](CCC(N)=O)C(=O)NC(C)(C)C(=O)N[C@@H](CC(C)C)C(=O)N[C@@H](C)C(=O)N[C@@H](CC(N)=O)C(=O)N[C@H](C(N)=O)[C@@H](C)O)C(C)C)C(=O)O)C(=O)O [Peptide 95] (H-HSQGS[αMeF]TSDVSK[Aib]LDSK([PEG2-PEG2-γGlu-γGlu-Stearoyl])AAQD[αMeF]VQ[Aib]LANT-NH2; N-terminus assumed) | 40.6 | 0.0125 nM |  |
| CCCCCCCCCCCCCCCCCC(=O)N[C@@H](CCC(=O)N[C@@H](CCC(=O)NCCOCCOCCC(=O)NCCOCCOCCC(=O)NCCCC[C@H](NC(=O)[C@H](CO)NC(=O)[C@H](CC(=O)O)NC(=O)[C@H](CC(C)C)NC(=O)C(C)(C)NC(=O)[C@H](CCCCN)NC(=O)[C@H](CO)NC(=O)[C@@H](NC(=O)[C@H](CC(=O)O)NC(=O)[C@H](CO)NC(=O)[C@@H](NC(=O)[C@](C)(Cc1ccccc1)NC(=O)[C@H](CO)NC(=O)CNC(=O)[C@H](CCC(N)=O)NC(=O)[C@H](CO)NC(=O)[C@@H](N)Cc1c[nH]cn1)[C@@H](C)O)C(C)C)C(=O)N[C@@H](C)C(=O)N[C@@H](C)C(=O)N[C@@H](CCC(N)=O)C(=O)N[C@@H](CC(=O)O)C(=O)N[C@@](C)(Cc1ccccc1)C(=O)N[C@H](C(=O)N[C@@H](CCC(N)=O)C(=O)NC(C)(C)C(=O)N[C@H](C(=O)N[C@H](C(=O)N[C@@H](CCC(=O)O)C(N)=O)[C@@H](C)CC)[C@@H](C)CC)C(C)C)C(=O)O)C(=O)O [Peptide 98] (H-HSQGS[αMeF]TSDVSK[Aib]LDSK([PEG2-PEG2-γGlu-γGlu-Stearoyl])AAQD[αMeF]VQ[Aib]IIE-NH2; N-terminus assumed) | 43.8 | 0.0541 nM | 2.44 pM |
| CCCCCCCCCCCCCCCC(=O)N[C@@H](CCC(=O)N[C@@H](CCC(=O)NCCOCCOCCC(=O)NCCOCCOCCC(=O)NCCCC[C@H](NC(=O)[C@H](CO)NC(=O)[C@H](CC(=O)O)NC(=O)[C@H](CC(C)C)NC(=O)C(C)(C)NC(=O)[C@H](CCCCN)NC(=O)[C@H](CO)NC(=O)[C@@H](NC(=O)[C@H](CC(=O)O)NC(=O)[C@H](CO)NC(=O)[C@@H](NC(=O)[C@](C)(Cc1ccccc1)NC(=O)[C@H](CO)NC(=O)CNC(=O)[C@H](CCC(N)=O)NC(=O)[C@H](CO)NC(=O)[C@@H](N)Cc1c[nH]cn1)[C@@H](C)O)C(C)C)C(=O)N[C@@H](C)C(=O)N[C@@H](C)C(=O)N[C@@H](CCC(N)=O)C(=O)N[C@@H](CC(=O)O)C(=O)N[C@@](C)(Cc1ccccc1)C(=O)N[C@H](C(=O)N[C@@H](CCC(N)=O)C(=O)NC(C)(C)C(=O)N[C@H](C(=O)N[C@@H](C)C(=O)N[C@@H](CC(N)=O)C(N)=O)[C@@H](C)CC)C(C)C)C(=O)O)C(=O)O [Peptide 99] (H-HSQGS[αMeF]TSDVSK[Aib]LDSK([PEG2-PEG2-γGlu-γGlu-Palmitoyl])AAQD[αMeF]VQ[Aib]IAN-NH2; N-terminus assumed) | 29.7 | 0.0332 nM | 2.21 pM |
| CCCCCCCCCCCCCCCCCC(=O)N[C@@H](CCC(=O)N[C@@H](CCC(=O)NCCOCCOCCC(=O)NCCOCCOCCC(=O)NCCCC[C@H](NC(=O)[C@H](CO)NC(=O)[C@H](CC(=O)O)NC(=O)[C@H](CC(C)C)NC(=O)C(C)(C)NC(=O)[C@H](CCCCN)NC(=O)[C@H](CO)NC(=O)[C@@H](NC(=O)[C@H](CC(=O)O)NC(=O)[C@H](CO)NC(=O)[C@@H](NC(=O)[C@](C)(Cc1ccccc1)NC(=O)[C@H](CO)NC(=O)CNC(=O)[C@H](CCC(N)=O)NC(=O)C(C)(C)NC(=O)[C@@H](N)Cc1c[nH]cn1)[C@@H](C)O)C(C)C)C(=O)N[C@@H](C)C(=O)N[C@@H](C)C(=O)N[C@@H](CCC(N)=O)C(=O)N[C@@H](CC(=O)O)C(=O)N[C@@](C)(Cc1ccccc1)C(=O)N[C@H](C(=O)N[C@@H](CCC(N)=O)C(=O)NC(C)(C)C(=O)N[C@H](C(=O)N[C@@H](C)C(=O)N[C@@H](CC(N)=O)C(N)=O)[C@@H](C)CC)C(C)C)C(=O)O)C(=O)O [Peptide 100] (H-H[Aib]QGS[αMeF]TSDVSK[Aib]LDSK([PEG2-PEG2-γGlu-γGlu-Stearoyl])AAQD[αMeF]VQ[Aib]IAN-NH2; N-terminus assumed) | 310.3 | 0.0405 nM |  |
| CCCCCCCCCCCCCCCCCC(=O)N[C@@H](CCC(=O)N[C@@H](CCC(=O)NCCOCCOCCC(=O)NCCOCCOCCC(=O)NCCCC[C@H](NC(=O)[C@H](CO)NC(=O)[C@H](CC(=O)O)NC(=O)[C@H](CC(C)C)NC(=O)C(C)(C)NC(=O)[C@H](CCCCN)NC(=O)[C@H](CO)NC(=O)[C@@H](NC(=O)[C@H](CC(=O)O)NC(=O)[C@H](CO)NC(=O)[C@@H](NC(=O)[C@](C)(Cc1ccccc1)NC(=O)[C@H](CO)NC(=O)CNC(=O)[C@H](CCC(N)=O)NC(=O)C(C)(C)NC(=O)[C@@H](N)Cc1c[nH]cn1)[C@@H](C)O)C(C)C)C(=O)N[C@@H](C)C(=O)N[C@@H](C)C(=O)N[C@@H](CCC(N)=O)C(=O)N[C@@H](CC(=O)O)C(=O)N[C@@](C)(Cc1ccccc1)C(=O)N[C@H](C(=O)N[C@@H](CCC(N)=O)C(=O)N[C@@H](Cc1c[nH]c2ccccc12)C(=O)N[C@H](C(=O)N[C@@H](C)C(=O)N[C@@H](CC(N)=O)C(N)=O)[C@@H](C)CC)C(C)C)C(=O)O)C(=O)O [Peptide 103] (H-H[Aib]QGS[αMeF]TSDVSK[Aib]LDSK([PEG2-PEG2-γGlu-γGlu-Stearoyl])AAQD[αMeF]VQWIAN-NH2; N-terminus assumed) | 220.8 | 0.0594 nM |  |
| CCCCCCCCCCCCCCCCCC(=O)N[C@@H](CCC(=O)N[C@@H](CCC(=O)NCCOCCOCCC(=O)NCCOCCOCCC(=O)NCCCC[C@H](NC(=O)[C@H](CO)NC(=O)[C@H](CC(=O)O)NC(=O)[C@H](CC(C)C)NC(=O)C(C)(C)NC(=O)[C@H](CCCCN)NC(=O)[C@H](CO)NC(=O)[C@@H](NC(=O)[C@H](CC(=O)O)NC(=O)[C@H](CO)NC(=O)[C@@H](NC(=O)[C@](C)(Cc1ccccc1)NC(=O)[C@H](CO)NC(=O)CNC(=O)[C@H](CCC(N)=O)NC(=O)[C@@H](NC(=O)[C@@H](N)Cc1c[nH]cn1)[C@@H](C)O)[C@@H](C)O)C(C)C)C(=O)N[C@@H](C)C(=O)N[C@@H](C)C(=O)N[C@@H](CCC(N)=O)C(=O)N[C@@H](CC(=O)O)C(=O)N[C@@](C)(Cc1ccccc1)C(=O)N[C@H](C(=O)N[C@@H](CCC(N)=O)C(=O)NC(C)(C)C(=O)N[C@H](C(=O)N[C@@H](C)C(=O)N[C@@H](CC(N)=O)C(N)=O)[C@@H](C)CC)C(C)C)C(=O)O)C(=O)O [Peptide 104] (H-HTQGS[αMeF]TSDVSK[Aib]LDSK([PEG2-PEG2-γGlu-γGlu-Stearoyl])AAQD[αMeF]VQ[Aib]IAN-NH2; N-terminus assumed) | 0.4 | 0.0456 nM | 247 pM |
